Data from US20160303231A1, “TREATING CANCER WITH A COMBINATION OF A PD-1 ANTAGONIST AND A VEGFR INHIBITOR” (GLAXOSMITHKLINE LLC, priority 2013, published 2016).
Where a name gives a salt, the structure may show the parent alone.

Test system: RENCA cells
Test: Anti-tumor response of tumor-bearing mice (RENCA tumor model)
Format: in vivo, BALB/c mice
Conditions: for Tumor Size (D17): Mean ± SEM, day 17
Procedure: A cohort of 8 weeks old female BALB/c mice were implanted with 1×10^6 RENCA cells. […] The Vehicle control was 0.5% hydroxypropylemethylcellulose, 0.1% Tween-80 in distilled water, pH adjusted to 1.3-1.5 with 0.1N hydrochloric acid. The Isotype control was mouse IgG1 specific for an adenoviral hexon protein (clone TC31.27F11).
A one-way ANOVA test was performed to compare tumor volume at the end of study among groups.

[1] = G4: Isotype 5 mpk + Pazopanib 100 mpk qd
[2] = G6: Isotype 1 mpk + Pazopanib 100 mpk qd
[3] = G8: Isotype 5 mpk + Pazopanib 100 mpk bid

SMILES: Cc1ccc(Nc2nccc(N(C)c3ccc4c(C)n(C)nc4c3)n2)cc1S(N)(=O)=O [Pazopanib, 5-[[4-[(2,3-dimethyl-2H-indazol-6-yl)methylamino]-2-pyrimidinyl]amino]-2-methylbenzenesulfonamide monohydrochloride]
- T/C [1]: 61%
- TGI (tumor growth inhibition) [1]: 39%
- T/C [2]: 70%
- TGI (tumor growth inhibition) [2]: 30%
- Tumor Size (D17) [2]: 1,751 ± 214 mm^3
- T/C [3]: 48%
- TGI (tumor growth inhibition) [3]: 52%
- Tumor Size (D17) [3]: 1,240 ± 97 mm^3
